From ChEMBL document CHEMBL1201862, “PubChem BioAssay data set” (2004) come the findings set out here.

Structures are written as SMILES.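 Five compound concentrations were applied to cells in 96-well plates for 48 hours; endpoints were derived by simple linear interpolation of the resulting dose-response curve. GI50 marks 50% less growth.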 Calls of active or inactive are those of the source. No stated cut-off is given here; in the data, active = GI50 up to about 1.1 µM and inactive = higher.

Some test systems named below: 786-0; EKVX; HCC 2998; HCT-15; MOLT-4; NCI-H226; NCI-H522; OVCAR-5; RPMI-8226; SF-268; SK-MEL-5; SK-OV-3; SN12C; SNB-75; SR; SW-620; UACC-257; UACC-62.
Common to all, as to assay: NCI-60 cell line screen, 48 h

Turning to `COc1cccc(/C=N/C23CC4CC(CC(C4)C2)C3)c1`, the GI50 was > 100 µM (inactive) in the assay with 786-0; > 100 µM (inactive) in the assay on EKVX; > 100 µM (inactive) in the assay with HCC 2998; > 100 µM in the assay with HCT-15; > 100 µM (inactive) in the assay on MOLT-4; > 100 µM (inactive) with NCI-H226. Moreover, the GI50 with NCI-H522, in the assay with OVCAR-5, in the assay with RPMI-8226, with SF-268, with SK-MEL-5 and in the assay with SK-OV-3 was > 100 µM (inactive) throughout. Besides, the GI50 is > 100 µM (inactive) with SN12C; 55.5 µM (inactive) in the assay on SNB-75; > 100 µM (inactive) in the assay with SR; > 100 µM (inactive) in the assay on SW-620; > 100 µM (inactive) in the assay with UACC-257; > 100 µM (inactive) with UACC-62.

As to `O=C1C2C(C(=O)N1Cc1ccccc1)N(Cc1ccccc1)C(=O)N2Cc1ccccc1` (stereo not drawn), the GI50 in the assay on 786-0 was > 100 µM (inactive); in the assay on EKVX it was > 100 µM (inactive); with HCC 2998, > 100 µM (inactive); in the assay with HCT-15, > 100 µM; in the assay with MOLT-4 it was > 100 µM (inactive); in the assay on NCI-H226, > 100 µM (inactive). The GI50 in the assay with NCI-H522, in the assay on OVCAR-5, in the assay on RPMI-8226, in the assay on SF-268, in the assay on SK-MEL-5 and in the assay on SK-OV-3 was > 100 µM (inactive) in each case. In addition, the GI50 in the assay with SN12C is > 100 µM (inactive); in the assay on SNB-75 it was 59.3 µM (inactive); in the assay with SR it was > 100 µM (inactive); with SW-620, > 100 µM (inactive); in the assay with UACC-257 it was > 100 µM (inactive); in the assay on UACC-62, > 100 µM (inactive).

On to `Nc1cccc2c1-c1c(cccc1[N+](=O)[O-])C2=O`, for which the GI50 in the assay on 786-0 was > 100 µM (inactive); with EKVX, > 100 µM (inactive); in the assay on HCC 2998, > 100 µM (inactive); in the assay on HCT-15, > 100 µM; in the assay with MOLT-4, > 100 µM (inactive); in the assay on NCI-H226, > 100 µM (inactive). Besides, the GI50 with NCI-H522, in the assay on OVCAR-5, in the assay on RPMI-8226, with SF-268, with SK-MEL-5 and with SK-OV-3 was > 100 µM (inactive) in each case. The GI50 with SN12C, in the assay on SNB-75, in the assay with SR, in the assay with SW-620, with UACC-257 and with UACC-62 was > 100 µM (inactive) each time.

As for `N#CC(/C(=N/NC(N)=S)C(=O)Nc1cccc(Cl)c1)c1ccccc1` (stereo not drawn), the GI50 is > 100 µM (inactive) in the assay with 786-0; > 100 µM (inactive) in the assay with EKVX; > 100 µM (inactive) with HCC 2998; > 100 µM in the assay on HCT-15; > 100 µM (inactive) with MOLT-4; > 100 µM (inactive) in the assay on NCI-H226. Besides, the GI50 in the assay with NCI-H522, in the assay on OVCAR-5, with RPMI-8226, in the assay on SF-268, in the assay on SK-MEL-5 and in the assay with SK-OV-3 was > 100 µM (inactive) throughout. Also, the GI50 is > 100 µM (inactive) with SN12C; 38.8 µM (inactive) with SNB-75; > 100 µM (inactive) with SR; > 100 µM (inactive) with SW-620; > 100 µM (inactive) in the assay on UACC-257; > 100 µM (inactive) in the assay on UACC-62.

`Cc1ccc(F)c2c(=O)cc(-c3ccccc3)[nH]c12`: the GI50 in the assay with 786-0 was > 100 µM (inactive); with HCT-15, > 100 µM; with MOLT-4, > 100 µM (inactive); in the assay with NCI-H226, 63 µM (inactive); in the assay on NCI-H522 it was > 100 µM (inactive); with OVCAR-5, > 100 µM (inactive). The GI50 in the assay on RPMI-8226 was > 100 µM (inactive); in the assay with SF-268, > 100 µM (inactive); with SK-MEL-5, 87.5 µM (inactive); in the assay with SK-OV-3 it was > 100 µM (inactive); with SN12C, > 100 µM (inactive); in the assay with SNB-75 it was 26 µM (inactive). Also, the GI50 in the assay on SR is 50.5 µM (inactive); in the assay with SW-620, > 100 µM (inactive); with UACC-257 it was > 100 µM (inactive); in the assay with UACC-62, > 100 µM (inactive).

For the compound `O=C1Sc2ccccc2C(=O)N2CSCC12` (stereo not drawn), the GI50 with 786-0, in the assay on EKVX, in the assay on HCC 2998, in the assay on MOLT-4, in the assay with NCI-H226 and with NCI-H522 was > 100 µM (inactive) each time. The GI50 in the assay on RPMI-8226, in the assay with SF-268, in the assay with SK-MEL-5, in the assay on SK-OV-3, in the assay on SN12C and in the assay on SNB-75 was > 100 µM (inactive) in each case. Besides, the GI50 in the assay with SR, in the assay on SW-620, with UACC-257 and with UACC-62 was > 100 µM (inactive) throughout.

Regarding `Cc1cc2c(CC(=O)O)n[nH]c2c(C(=O)O)c1C`, the GI50 was > 100 µM (inactive) in the assay with 786-0; > 100 µM (inactive) in the assay with EKVX; > 100 µM (inactive) with HCC 2998; > 100 µM in the assay on HCT-15; > 100 µM (inactive) in the assay on MOLT-4; > 100 µM (inactive) in the assay with NCI-H226. Also, the GI50 in the assay with OVCAR-5, in the assay on RPMI-8226, with SF-268, in the assay with SK-OV-3, with SN12C and with SNB-75 was > 100 µM (inactive) throughout. Also, the GI50 in the assay on SR, in the assay on SW-620, with UACC-257 and in the assay on UACC-62 was > 100 µM (inactive) in each case.

For `O=c1cc2n(c(=O)[nH]1)C1OC(C(O)C1O)[C@H]2CCO` (stereo partly drawn), the GI50 in the assay with 786-0, in the assay on EKVX, in the assay on MOLT-4, in the assay on NCI-H226, in the assay with NCI-H522 and in the assay with OVCAR-5 was > 100 µM (inactive) in each case. The GI50 in the assay on SF-268, in the assay on SK-MEL-5, in the assay with SK-OV-3, in the assay with SN12C, in the assay on SR and in the assay with SW-620 was > 100 µM (inactive) throughout. In addition, the GI50 in the assay with UACC-257 and in the assay on UACC-62 was > 100 µM (inactive) throughout.

With `O=C1CCC2(c3ccc(F)cc3)Nc3cc(Cl)ccc3N12` (stereo not drawn), the GI50 in the assay on 786-0 is > 100 µM (inactive); in the assay with EKVX, > 100 µM (inactive); with HCT-15, > 100 µM; in the assay with MOLT-4 it was 37.2 µM (inactive); in the assay with NCI-H226, 38.5 µM (inactive); in the assay with NCI-H522 it was 48.6 µM (inactive). For the same compound, the GI50 is 76.7 µM (inactive) in the assay on RPMI-8226; > 100 µM (inactive) with SF-268; 45.5 µM (inactive) in the assay on SK-MEL-5; > 100 µM (inactive) in the assay with SK-OV-3; > 100 µM (inactive) in the assay on SN12C; > 100 µM (inactive) in the assay on SNB-75. Moreover, the GI50 in the assay with SR is 43.4 µM (inactive); in the assay with SW-620 it was > 100 µM (inactive); in the assay with UACC-257, 90.4 µM (inactive); in the assay with UACC-62, 66.1 µM (inactive).

In the case of `COc1ccc(C2(CN(C)C)COc3cc(OC)c(OC)cc3C2=O)cc1OC` (stereo not drawn), the GI50 with 786-0 is > 100 µM (inactive); in the assay with EKVX, > 100 µM (inactive); in the assay with HCC 2998, > 100 µM (inactive); with MOLT-4 it was 44.3 µM (inactive); in the assay on NCI-H226, 84.9 µM (inactive); with NCI-H522, 59.6 µM (inactive). Further, the GI50 in the assay on RPMI-8226 is 23.5 µM (inactive); in the assay with SF-268 it was > 100 µM (inactive); with SK-MEL-5, 24.1 µM (inactive); in the assay on SK-OV-3, > 100 µM (inactive); with SN12C, 77.1 µM (inactive); in the assay with SNB-75, 47 µM (inactive). Further, the GI50 with SR is 30.6 µM (inactive); in the assay on SW-620, 21.6 µM (inactive); in the assay with UACC-257, 49.1 µM (inactive); in the assay on UACC-62, 38.7 µM (inactive).

As to `CCC1CCC2CCCC(C)N12` (stereo not drawn), the GI50 in the assay on 786-0 is > 100 µM (inactive); in the assay with EKVX it was > 100 µM (inactive); with HCC 2998, > 100 µM (inactive); in the assay on HCT-15, > 100 µM; with MOLT-4, > 100 µM (inactive); in the assay with NCI-H226 it was > 100 µM (inactive). Besides, the GI50 in the assay with NCI-H522, in the assay on RPMI-8226, in the assay on SF-268, in the assay on SN12C, in the assay on SNB-75 and with SR was > 100 µM (inactive) throughout. The GI50 in the assay on SW-620, in the assay on UACC-257 and in the assay with UACC-62 was > 100 µM (inactive) in each case.

Take `CC(C)/C=C1\CCC(CN2CCCC2)C1=O` (stereo not drawn): the GI50 in the assay with 786-0 is 2.01 µM (inactive); in the assay with EKVX it was 20.8 µM (inactive); in the assay with HCC 2998, 19.5 µM (inactive); with HCT-15, 5.05 µM; in the assay with MOLT-4 it was 3.63 µM (inactive); with NCI-H226, 20.9 µM (inactive). Moreover, the GI50 was 1.95 µM (inactive) in the assay on NCI-H522; 20 µM (inactive) in the assay with OVCAR-5; 0.472 µM (active) with RPMI-8226; 22.3 µM (inactive) in the assay on SF-268; 17.1 µM (inactive) in the assay on SK-MEL-5; > 100 µM (inactive) with SK-OV-3. In addition, the GI50 with SN12C was 18.7 µM (inactive); in the assay with SR it was 2.82 µM (inactive); with SW-620, 2.44 µM (inactive); in the assay with UACC-257 it was 17.7 µM (inactive); in the assay with UACC-62, 20.6 µM (inactive).
